Reference: patent US20240041042A1, “1-(PYRIDYL)-5-AZINYLPYRAZOLE DERIVATIVES, AND THEIR USE FOR CONTROL OF UNDESIRED PLANT GROWTH” (Bayer Aktiengesellschaft, priority 2020, published 2024)
Read-outs that look alike come from different tables or passages of the source.

Tests used:
Assay type in all cases: in vivo
[1] = tested on: Polygonum convolvulus (POLCO); test: Post-emergence herbicidal action against POLCO; conditions: dosage 320 g/ha
In short: (§1)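 Post-emergence greenhouse spray, one-leaf stage, 600 l/ha water plus 0.5% additive; WP or EC formulations; application rates 320 g/ha or lower. Visual % damage vs untreated controls at ~3 weeks.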

Viola tricolor (VIOTR) [2] = test: Post-emergence herbicidal action against VIOTR; conditions: 320 g/ha
In short: as §1

Setaria viridis (SETVI) [3] = test: Post-emergence herbicidal action against SETVI
In short: as §1

[4] = tested on: Triticum aestivum (TRZAS); conditions: crop plant compatibility, effect vs untreated controls
In short: (§2)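 Test crops were treated 2 to 3 weeks after sowing, once they reached one leaf, by spraying compound in water with 0.5% additive at 600 l/ha. Visual scoring compared them with untreated controls roughly 3 weeks on, and appendices a, b and c denote different doses.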

Oryza sativa (ORYSA) [5] = conditions: crop plant compatibility
In short: as §2

Zea mays (ZEAMX) [6] = conditions: crop plant compatibility, effect vs untreated controls
In short: as §2

Glycine max (GLXMA) [7] = test: Post-emergence crop plant compatibility, GLXMA; conditions: for Post-emergence action against GLXMA: 320 g/ha, effect vs untreated controls; for Post-emergence action against GLXMA in %: effect in comparison to untreated controls
Method: Seeds of monocotyledonous and dicotyledonous weeds and crop plants are placed in sandy loam in plastic or organic planting pots, covered with soil and cultivated in a greenhouse under controlled growth conditions. 2 to 3 weeks after sowing, the test plants are treated at the one-leaf stage. The compounds of the invention, formulated in the form of wettable powders (WP) or as emulsion concentrates (EC), are then sprayed onto the green parts of the plants as aqueous suspension or emulsion with addition of 0.5% additive at a water application rate of 600 l/ha (converted). After the test plants have been kept in the greenhouse under optimum growth conditions for about 3 weeks, the activity of the preparations is rated visually in comparison to untreated controls. For example, 100% activity=the plants have died, 0% activity=like control plants.
The observed effects on selected crop plants are reported here in comparison to the untreated controls (values in %). The appendices “a”, “b” and “c” give differentiation by dosage used with otherwise the same crop plants tested.

[8] = tested on: Amaranthus retroflexus (AMARE); test: Pre-emergence herbicidal action against AMARE; conditions: 320 g/ha, visual scoring after about 3 weeks vs untreated controls
In short: (§3)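 Read-out is visual percent damage relative to untreated pots, with 100% meaning dead plants and 0% meaning no difference, assessed roughly three weeks after treatment. Compounds were applied pre-emergence to the covering soil at up to 320 g/ha.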

[9] = tested on: Amaranthus retroflexus (AMARE); test: Post-emergence herbicidal action against AMARE
In short: as §1

Brassica napus (BRSNW) = conditions: 80 g/ha, crop plant compatibility, in comparison to untreated controls
In short: (§4)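 Scoring: visual, % of untreated control, about 3 weeks after a pre-emergence application to the soil surface. Application used WP or EC formulations diluted in water with 0.5% additive at 600 l/ha; dosage levels are marked by suffixes a, b and c.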

[10] = tested on: Triticum aestivum (TRZAS); conditions: pre-emergence, crop plant compatibility, in comparison to untreated controls
In short: as §4

Glycine max (GLXMA) [11] = conditions: pre-emergence, crop plant compatibility, in comparison to untreated controls
In short: as §4

Oryza sativa (ORYSA) [12] = conditions: pre-emergence, 80 g/ha, crop plant compatibility, in comparison to untreated controls
In short: as §4

[13] = tested on: Pharbitis purpurea (PHBPU); test: Post-emergence herbicidal action against PHBPU
In short: as §1

[14] = tested on: Polygonum convolvulus (POLCO); test: Pre-emergence herbicidal action against POLCO; conditions: dosage 320 g/ha
In short: as §3

Avena fatua (AVEFA) [15] = test: Pre-emergence herbicidal action against AVEFA; conditions: 320 g/ha, visual scoring after about 3 weeks vs untreated controls
In short: as §3

Viola tricolor (VIOTR) [16] = test: Pre-emergence herbicidal action against VIOTR; conditions: 320 g/ha, Viola tricolor
In short: as §3

Zea mays (ZEAMX) [17] = conditions: pre-emergence, 80 g/ha, crop plant compatibility, in comparison to untreated controls
In short: as §4

Lolium rigidum (LOLRI) [18] = test: Post-emergence herbicidal action against LOLRI; conditions: dosage 80 g/ha
In short: as §1

Lolium rigidum (LOLRI) [19] = test: Pre-emergence herbicidal action against LOLRI; conditions: dosage 320 g/ha
In short: as §3

[20] = tested on: Echinochloa crus-galli (ECHCG); test: Pre-emergence herbicidal action against ECHCG; conditions: dosage 320 g/ha
In short: as §3

[21] = tested on: Abutilon theophrasti (ABUTH); test: Post-emergence herbicidal action against ABUTH; conditions: 80 g/ha, visual rating about 3 weeks after treatment vs untreated controls (100% = plants have died, 0% = like control plants)
In short: as §1

[22] = tested on: Digitaria sanguinalis (DIGSA); test: Pre-emergence herbicidal action against DIGSA; conditions: dosage 320 g/ha
In short: as §3

[23] = tested on: Echinochloa crus-galli (ECHCG); test: Post-emergence herbicidal action against ECHCG; conditions: dosage 80 g/ha
In short: as §1

[24] = tested on: Matricaria inodora (MATIN); test: Post-emergence herbicidal action against MATIN; conditions: dosage 80 g/ha
In short: as §1

[25] = tested on: Alopecurus myosuroides (ALOMY); test: Pre-emergence herbicidal action against ALOMY; conditions: 320 g/ha; scored visually after about 3 weeks; 100% = plants have died
In short: as §3

[26] = tested on: Alopecurus myosuroides (ALOMY); test: Post-emergence herbicidal action against ALOMY; conditions: 80 g/ha, visual rating about 3 weeks after treatment vs untreated controls (100% = plants have died, 0% = like control plants)
In short: as §1

[27] = tested on: Pharbitis purpurea (PHBPU); test: Pre-emergence herbicidal action against PHBPU; conditions: dosage 320 g/ha
In short: as §3

[28] = tested on: Matricaria inodora (MATIN); test: Pre-emergence herbicidal action against MATIN; conditions: dosage 320 g/ha
In short: as §3

Avena fatua (AVEFA) [29] = test: Post-emergence herbicidal action against AVEFA; conditions: 80 g/ha, visual rating about 3 weeks after treatment
In short: as §1

Setaria viridis (SETVI) [30] = test: Pre-emergence herbicidal action against SETVI; conditions: dosage 320 g/ha
In short: as §3

[31] = 80 g/ha, effect in comparison to untreated controls
[32] = 320 g/ha, effect in comparison to untreated controls
[33] = 320 g/ha, visual rating about 3 weeks after treatment

In the case of `CCOC(=O)C[S+]([O-])c1nn(-c2ccccn2)c(-c2cncc(F)c2)c1Cl` (centres unmarked) [Example I-150], the “Post-emergence action against POLCO in %” value [1] is reported as 90%, the “Post-emergence action against VIOTR in %” value (Viola tricolor (VIOTR) [2]) is reported as 80% and the “Post-emergence action against SETVI in %” value (Setaria viridis (SETVI) [3]; dosage 320 g/ha) is reported as 80%. For the same compound, the “Post-emergence action against TRZAS in %” value ([4]; 80 g/ha) was 0%, the “Post-emergence action against TRZAS in %” value ([4]; 320 g/ha) was 10% and the “Post-emergence action against ORYSA in %” value (Oryza sativa (ORYSA) [5]; [31]) was 0%. For the same compound, the “Post-emergence action against ORYSA in %” value (Oryza sativa (ORYSA) [5]; [32]) was 0%, the “Post-emergence action against ZEAMX in %” value (Zea mays (ZEAMX) [6]; 80 g/ha) was 0% and the “Post-emergence action against ZEAMX in %” value (Zea mays (ZEAMX) [6]; 320 g/ha) was 0%. For the same compound, the “Post-emergence action against GLXMA” value (Glycine max (GLXMA) [7]) was 0%, the “Post-emergence action against GLXMA in %” value (Glycine max (GLXMA) [7]; 80 g/ha) was 0% and the “Pre-emergence action against AMARE in %” value [8] was 80%. The “Post-emergence action against AMARE in %” value ([9]; 80 g/ha, visual rating about 3 weeks after treatment vs untreated controls (100% = plants have died, 0% = like control plants)) was 80%, the “Post-emergence action against AMARE in %” value [9, 33] was 80% and the “Pre-emergence action against BRSNW in %” value (Brassica napus (BRSNW)) was 0%. For the same compound, the “Pre-emergence action against TRZAS in %” value ([10]; 80 g/ha) was 0%, the “Pre-emergence action against TRZAS in %” value ([10]; 320 g/ha) was 0% and the “Pre-emergence action against GLXMA in %” value (Glycine max (GLXMA) [11]; 80 g/ha) was 0%. For the same compound, the “Pre-emergence action against GLXMA in %” value (Glycine max (GLXMA) [11]; 320 g/ha) was 0% and the “Pre-emergence action against ORYSA in %” value (Oryza sativa (ORYSA) [12]) was 20%.

With `CCOC(=O)COc1nn(-c2ccccn2)c(-c2cncc(F)c2)c1Cl` [Example I-147] the “Post-emergence action against PHBPU in %” value ([13]; dosage 320 g/ha) was 90%, the “Post-emergence action against POLCO in %” value [1] was 90% and the “Post-emergence action against VIOTR in %” value (Viola tricolor (VIOTR) [2]) was 90%. The “Pre-emergence action against POLCO in %” value [14] was 90%, the “Pre-emergence action against AVEFA in %” value (Avena fatua (AVEFA) [15]) was 80% and the “Post-emergence action against TRZAS in %” value ([4]; 80 g/ha) was 0%. For the same compound, the “Post-emergence action against TRZAS in %” value ([4]; 320 g/ha) was 20%, the “Post-emergence action against ORYSA in %” value (Oryza sativa (ORYSA) [5]; [31]) was 0% and the “Post-emergence action against ORYSA in %” value (Oryza sativa (ORYSA) [5]; [32]) was 0%. For the same compound, the “Post-emergence action against ZEAMX in %” value (Zea mays (ZEAMX) [6]; 80 g/ha) was 0%, the “Post-emergence action against ZEAMX in %” value (Zea mays (ZEAMX) [6]; 320 g/ha) was 20% and the “Post-emergence action against GLXMA” value (Glycine max (GLXMA) [7]) was 10%. The “Post-emergence action against GLXMA in %” value (Glycine max (GLXMA) [7]; 80 g/ha) was 0%, the “Pre-emergence action against VIOTR in %” value (Viola tricolor (VIOTR) [16]) was 90% and the “Pre-emergence action against AMARE in %” value [8] was 90%. For the same compound, the “Post-emergence action against AMARE in %” value [9, 33] was 90%, the “Pre-emergence action against BRSNW in %” value (Brassica napus (BRSNW)) was 0% and the “Pre-emergence action against TRZAS in %” value ([10]; 80 g/ha) was 0%. The “Pre-emergence action against TRZAS in %” value ([10]; 320 g/ha) was 20%, the “Pre-emergence action against GLXMA in %” value (Glycine max (GLXMA) [11]; 80 g/ha) was 0% and the “Pre-emergence action against GLXMA in %” value (Glycine max (GLXMA) [11]; 320 g/ha) was 0%. For the same compound, the “Pre-emergence action against ZEAMX in %” value (Zea mays (ZEAMX) [17]) was 0%.

For `CCOC(=O)CSc1nn(-c2ccccn2)c(-c2cncc(F)c2)c1Br` [Example I-125], the “Post-emergence action against LOLRI in %” value (Lolium rigidum (LOLRI) [18]) was 80%, the “Pre-emergence action against LOLRI in %” value (Lolium rigidum (LOLRI) [19]) was 80% and the “Post-emergence action against PHBPU in %” value ([13]; dosage 80 g/ha) was 80%. For the same compound, the “Pre-emergence action against ECHCG in %” value [20] was 80%, the “Post-emergence action against ABUTH in %” value [21] was 80% and the “Pre-emergence action against DIGSA in %” value [22] was 100%. The “Post-emergence action against ECHCG in %” value [23] was 90%, the “Pre-emergence action against POLCO in %” value [14] was 90% and the “Post-emergence action against MATIN in %” value [24] was 80%. For the same compound, the “Pre-emergence action against ALOMY” value [25] was 80%, the “Post-emergence action against SETVI in %” value (Setaria viridis (SETVI) [3]; dosage 80 g/ha) was 80% and the “Post-emergence action against TRZAS in %” value ([4]; 20 g/ha) was 10%. The “Post-emergence action against ORYSA in %” value (Oryza sativa (ORYSA) [5]; 20 g/ha, effect vs untreated controls) was 0%, the “Post-emergence action against ORYSA in %” value (Oryza sativa (ORYSA) [5]; [31]) was 0% and the “Post-emergence action against GLXMA in %” value (Glycine max (GLXMA) [7]; 20 g/ha) was 20%. The “Post-emergence action against ALOMY in %” value [26] was 90%, the “Pre-emergence action against PHBPU in %” value [27] was 90% and the “Pre-emergence action against MATIN in %” value [28] was 90%. The “Pre-emergence action against VIOTR in %” value (Viola tricolor (VIOTR) [16]) was 90%, the “Pre-emergence action against AMARE in %” value [8] was 100% and the “Post-emergence action against AVEFA in %” value (Avena fatua (AVEFA) [29]) was 90%. The “Pre-emergence action against SETVI in %” value (Setaria viridis (SETVI) [30]) was 90%, the “Pre-emergence action against BRSNW in %” value (Brassica napus (BRSNW)) was 20% and the “Pre-emergence action against TRZAS in %” value ([10]; 80 g/ha) was 10%. The “Pre-emergence action against ORYSA in %” value (Oryza sativa (ORYSA) [12]) was 10% and the “Pre-emergence action against ZEAMX in %” value (Zea mays (ZEAMX) [17]) was 10%.
